The record followed here is US20140024677A1, “METHODS FOR INDUCING MITOCHONDRIAL BIOGENESIS” (MUSC Foundation For Research Development, priority 2012, published 2014).

One assay relates to mtDNA in kidney cortex. The assay can be described thus: mtDNA copy number in kidney of dosed mice (D-loop/apoB). The format is in vivo, C57BL/6 mice. To be noted: 72 h after daily repeated i.p. injection with 100 mg/kg (so in the source). An excerpt:
(§1) Mitochondrial DNA Content.

The test system of the next assay is mtDNA in heart. As to the kind of experiment: mtDNA copy number in heart of dosed mice (D-loop/apoB). The format is in vivo, C57BL/6 mice.
Description: as §1

Assay [1] has as its system KIM-1, PGC-1α, COX I, NDUFB8 in renal cortical tissue. The procedure:
I/R model of AKI. Eight-week-old male C57BL6 mice weighing 25-30 g were subjected to bilateral renal pedicle ligation. Briefly, renal artery and vein were isolated and blood flow was occluded with a vascular clamp for 20 min, and mice were euthanized at 24, 72, or 144 h after procedure, at which time kidneys were harvested for molecular analysis. All procedures involving animals were performed with approval from the IACUC in accordance with the NIH Guide for the Care and Use of Laboratory Animals.
Immunoblot analysis. Renal cortical tissue was lysed in RIPA buffer containing cocktail protease and phosphatase inhibitors. Total protein content was measured by the BCA assay. Fifty micrograms of total protein were loaded into SDS-PAGE gels and immunoblots were performed as previously described (26). Antibodies used for immunoblot studies were obtained from the following vendors: caspase 3 (Enzo Life Sciences), GAPDH (Fitzgerald Antibodies), COX I and NDUFB8 (MitoSciences), KIM-1 (R&D Systems), and PGC-1α (Calbiochem).
mRNA analysis. Total RNA was isolated from renal cortical tissue with TRIzol (Invitrogen) according to the manufacturer's protocol and cDNA was synthesized using RevertAid First Strand cDNA Synthesis Kit (Fermentas). PCR reactions were performed using 3:1 diluted cDNA product. Primers sequences for NDUFB8 and COX I were used.
Previous in vivo and in vitro research has identified depletion of mitochondrial function and abundance in models of hypoxia correlated with dysfunctional kidney function.

For a further assay, the system named is I/R induced AKI. As to conditions: after five doses started 24 h after I/R injury; 144 h.
For the next assay, the system named is renal mitochondria. As to conditions: treatment after I/R injury.
Assay [2] relates to adult feline cardiomyocytes (AFC). It counts as cell-based. As to conditions: 24 hr, formoterol 10 and 30 nM.
Description: Respirometry assay. […] Each experimental plate was treated with vehicle controls (DMSO<0.5%), a positive control (SRT1720, 10 μM), blank controls, and the appropriate concentration of the compound of interest. The XF-96 protocol consists of five measurements of basal OCR (1 measurement/1.5 min), injection of FCCP (0.5 μM), and three measurements of uncoupled OCR (1 measurement/1.5 min). […] Quality control evaluations considered the basal and uncoupled rates of the vehicle control, positive control, and variances between duplicate treatment wells. […] This threshold is ≧1 S.D. above the historic mean for the vehicle control.
A further assay relates to gastrocnemius muscle. The assay can be described thus: Dexamethasone-induced muscle wasting, gastrocnemius weight. The format is in vivo, Mice.

Description for I/R induced AKI: Assessing renal function. For mice, blood was collected by retro-orbital eye bleed 24 h and 144 h. Creatinine levels were measured using a Quantichrom Creatinine Assay Kit (BioAssay Systems, Hayward, Calif.) according to the manufacturer's protocol.
Description for gastrocnemius muscle: On the 8th day, gastrocnemius muscle was isolated from both the hind limbs and weighed. The average weights were normalized to initial body weights.
Description for renal mitochondria: Mitochondrial function was measured ex vivo by isolating renal mitochondria and determining state 4 (basal respiration) and state 3 (ADP-stimulated respiratory rate).

Consider `COc1ccc(C[C@@H](C)NC[C@H](O)c2ccc(O)c(NC=O)c2)cc1` (racemic) [formoterol, rac-(R,R)—N-[2-hydroxy-5-[1-hydroxy-2-[1-(4-methoxyphenyl)propan-2-ylamino]ethyl]phenyl]formamide], for which the “mtDNA copy number increase, kidney cortex” value with mtDNA in kidney cortex worked out at 2 fold. For the same compound, the “mtDNA copy number increase (FIG. 3C, heart figure)” value with mtDNA in heart (24 h, i.p. 100 mg/kg (so in the source)) is recorded as 2 fold. Moreover, in the assay on mtDNA in heart (72 h, daily repeated i.p. 100 mg/kg (so in the source)), the “mtDNA copy number increase (FIG. 3C, heart figure)” value is 2.5 fold. Besides, in assay [1] (144 h post I/R injury), the KIM-1 protein expression entry is recorded as “to the level of sham vehicle”. In addition, the “Gene transcription and protein translation in sham animals” value in assay [1] (sham animals exposed to formoterol vs control animals) is “not significantly altered”. In addition, in assay [1] (treatment after I/R, 144 h), the “COX I gene expression” value is “restored with treatment of formoterol after I/R, but not significantly different than the I/R vehicle group”; the “COX I protein expression” value was “significantly above the I/R vehicle group”; the NDUFB8 gene transcription result is “did not restore”; the NDUFB8 protein expression entry is on record as “significantly above the I/R vehicle group”. In addition, the “Total PGC-1α gene expression” value in assay [1] (treatment from 24 h post I/R injury, 144 h) is reported as “significantly above the I/R vehicle group, but not fully restored to control levels”. Also, in the assay on I/R induced AKI, the “Serum creatinine (SCr)” value turned out to be 0.29 mg/dL. The “Mitochondrial respiration of isolated renal mitochondria (basal and state 3)” value in the assay on renal mitochondria is on record as “completely restore”.
In the case of `C[C@H](Cc1ccc(OCC(=O)O)cc1)NC[C@H](O)c1cccc(Cl)c1.O.[Na]` (relative stereo) [BRL 37344, (±)-(R*,R*)-[4-[2-[[2-(3-Chlorophenyl)-2-hydroxyethyl]amino]propyl]phenoxy]acetic acid sodium hydrate], the “Change in FCCP-uncoupled OCR” value in assay [2] is “did not have any significant effects”.
Turning to `C[C@@H]1C[C@H]2[C@@H]3CCC4=CC(=O)C=C[C@]4(C)[C@@]3(F)[C@@H](O)C[C@]2(C)[C@@]1(O)C(=O)CO` [DEX, dexamethasone], in the assay with gastrocnemius muscle (25 mg/kg i.p., 7 days, weight normalized to initial body weight), the “Decrease in gastrocnemius wt. compared to saline controls” value is 15%.
`CC(C)NC[C@H](O)c1ccc(O)c(O)c1.Cl` [isoproterenol, (R)-3,4-Dihydroxy-α-(isopropylaminomethyl)benzyl alcohol hydrochloride]: the “Change in FCCP-uncoupled OCR” value in assay [2] is “did not have any significant effects”.
For “(3R)-N-methyl-3-(2-methylphenoxy)-3-phenylpropan-1-amine [Tomoxetine]”, in the assay on gastrocnemius muscle (co-injected with dexamethasone 25 mg/kg i.p. for 7 days, formoterol 100/300 ug/Kg i.p., atomoxetine 100 ug/kg i.p.), the “Gastrocnemius muscle weight in DEX-treated mice” value is listed as “restored atrophied muscle back to normal”.
